Experiments:
Assay in all cases: MIC by E-strips on Mueller-Hinton agar with or without NAB7061 (4 µg/ml)
Ac. baumannii F264 = type: cell-based, Acinetobacter baumannii; settings: A. baumannii F264; NAB 7061 4 µg/ml
Experimental: (§1) MICs were determined by using E-strips (Biodisk Ltd., Solna, Sweden) according to the manufacturer's instructions.
(§2) The strains originated from ATCC (11 strains), CCUG (11 strains), and NCTC (The National Collection of Type Cultures, Colindale, U.K.; 2 strains). Eight strains (the F-strains) were purchased from Mobidiag Ltd., Helsinki, Finland.

Ac. baumannii F263 = type: cell-based, Acinetobacter baumannii; settings: A. baumannii F263; NAB 7061 4 µg/ml
Experimental: as §1, §2

E. coli ATCC25922 = type: cell-based, Escherichia coli; settings: ratio of the MIC of the antibiotic in the absence of NAB 7061 to that in the presence of 4 µg/ml of NAB 7061; E. coli ATCC 25922
Experimental: as §1, §2

C[C@@H](O)[C@H]1C(=O)N2C(C(=O)O)=C(SCCN=CN)C[C@H]12 [imipenem]
MIC (µg/ml) at the indicated concn (µg/ml) of NAB 7061: 4 (Ac. baumannii F264): 6 µg/mL
MIC (µg/ml) at the indicated concn (µg/ml) of NAB 7061: 4 (Ac. baumannii F263): 8 µg/mL

C[C@@H](O)[C@H]1C(=O)N2C(C(=O)O)=C(S[C@@H]3CN[C@H](C(=O)N(C)C)C3)[C@H](C)[C@H]12 [meropenem]
MIC (µg/ml) at the indicated concn (µg/ml) of NAB 7061: 4 (Ac. baumannii F264): 4 µg/mL
MIC (µg/ml) at the indicated concn (µg/ml) of NAB 7061: 4 (Ac. baumannii F263): 6 µg/mL
Sensitization factor (E. coli ATCC25922): < 2

— EP2057185B1, “POLYMYXIN DERIVATIVES AND USES THEREOF” (Northern Antibiotics Oy, priority 2006, dated 2008)
